Test results as given in ChEMBL document CHEMBL1130039, “1,2-Diarylimidazoles as potent, cyclooxygenase-2 selective, and orally active antiinflammatory agents” (J Med Chem, 1997).
Active and inactive are the calls of the source. The calls are words filed in the database; no cut-off is given here.

Key:
[1] = species: Rattus norvegicus; assay: animal or person; type: functional
[2] = species: Rattus norvegicus; assay: animal or person; type: functional; remark: listed apart in the source
[3] = species: Rattus norvegicus; assay: animal or person; type: functional; remark: listed apart in the source
[4] = mouse, in vivo, po, 200 mg/kg
[5] = mouse, in vivo, po, 20 mg/kg
[6] = biological target: T1, Prostaglandin G/H synthase 1 (Homo sapiens, UniProt P23219)
[7] = species: Rattus norvegicus; assay: animal or person; type: functional; remark: listed apart in the source
[8] = rat, in vivo, po, 200 mg/kg
[9] = species: Rattus norvegicus; assay: animal or person; type: functional; remark: listed apart in the source
[10] = biological target: T2, Prostaglandin G/H synthase 2 (Homo sapiens) (UniProt P35354)
T2 sequence (whole entry): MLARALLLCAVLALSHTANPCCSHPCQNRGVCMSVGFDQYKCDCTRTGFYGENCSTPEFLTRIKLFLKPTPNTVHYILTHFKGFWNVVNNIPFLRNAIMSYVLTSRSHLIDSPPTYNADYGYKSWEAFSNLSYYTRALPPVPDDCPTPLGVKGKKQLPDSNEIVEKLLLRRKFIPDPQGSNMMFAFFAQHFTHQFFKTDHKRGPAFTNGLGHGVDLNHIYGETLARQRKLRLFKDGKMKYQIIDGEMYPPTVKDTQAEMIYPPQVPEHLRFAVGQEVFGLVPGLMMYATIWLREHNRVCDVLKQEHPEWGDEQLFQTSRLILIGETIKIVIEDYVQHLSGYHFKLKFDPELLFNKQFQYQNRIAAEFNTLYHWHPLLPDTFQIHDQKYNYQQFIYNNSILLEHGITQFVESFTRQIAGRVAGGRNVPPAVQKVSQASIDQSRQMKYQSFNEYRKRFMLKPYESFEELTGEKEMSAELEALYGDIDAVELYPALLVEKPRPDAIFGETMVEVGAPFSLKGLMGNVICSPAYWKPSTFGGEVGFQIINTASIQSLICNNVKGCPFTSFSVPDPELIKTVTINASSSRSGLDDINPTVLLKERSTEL

[11] = biological target: T1, Prostaglandin G/H synthase 1; remark: listed apart in the source
[12] = species: Rattus norvegicus; assay: animal or person; settings: read-out: Inhibition
[13] = species: Rattus norvegicus; assay: animal or person; type: functional; remark: listed apart in the source
[14] = physchem; settings: octanol/water
[15] = species: Rattus norvegicus; assay: animal or person; type: functional; remark: listed apart in the source
[16] = species: Rattus norvegicus; assay: animal or person; type: functional; remark: listed apart in the source

T1 sequence (P23219 whole entry): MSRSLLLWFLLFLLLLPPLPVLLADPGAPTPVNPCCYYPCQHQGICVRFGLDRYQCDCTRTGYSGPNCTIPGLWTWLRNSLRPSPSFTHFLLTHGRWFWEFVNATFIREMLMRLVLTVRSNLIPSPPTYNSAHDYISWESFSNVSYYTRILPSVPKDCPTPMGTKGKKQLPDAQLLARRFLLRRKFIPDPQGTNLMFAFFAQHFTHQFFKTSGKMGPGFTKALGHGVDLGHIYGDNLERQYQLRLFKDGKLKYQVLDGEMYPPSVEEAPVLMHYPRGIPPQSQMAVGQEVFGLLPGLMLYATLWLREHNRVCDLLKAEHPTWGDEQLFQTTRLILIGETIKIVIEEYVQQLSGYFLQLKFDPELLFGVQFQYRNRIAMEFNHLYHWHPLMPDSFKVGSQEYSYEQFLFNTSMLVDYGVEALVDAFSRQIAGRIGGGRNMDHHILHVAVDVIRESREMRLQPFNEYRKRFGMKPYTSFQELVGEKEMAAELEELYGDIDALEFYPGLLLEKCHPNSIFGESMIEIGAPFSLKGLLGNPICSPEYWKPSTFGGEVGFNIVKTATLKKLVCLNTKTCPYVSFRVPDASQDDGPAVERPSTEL

Row | Compound | inhibition in vivo at 2 mg/kg [3] [%] | IC50 [6] [µM] | also measured
1 | Cc1cccc(-c2nc(C(F)(F)F)cn2-c2ccc(S(C)(=O)=O)cc2)c1 | 77 | – | ED50 [1]: 46 mg/kg; ED50 [2]: 23 mg/kg; Toxicity [4]: 0; Toxicity [5]: 0
2 | Cc1cccc(Cl)c1-c1nc(C(F)(F)F)cn1-c1ccc(S(C)(=O)=O)cc1 | – | > 100 | –
3 | Cc1ccc(-c2nc(C(F)(F)F)cn2-c2ccc(S(C)(=O)=O)cc2)cc1Cl | 10 | – | ED50 [1]: 55 mg/kg; ED50 [7]: 20.9 mg/kg
4 | CS(=O)(=O)c1ccc(-n2cc(C(F)(F)F)nc2-c2cc(F)cc(C(F)(F)F)c2)cc1 | – | 67 | –
5 | Cc1ccc(-c2nc(C(F)(F)F)cn2-c2ccc(S(C)(=O)=O)cc2)cc1C | 15 | – | –
6 | COc1cccc(-c2nc(C(F)(F)F)cn2-c2ccc(S(C)(=O)=O)cc2)c1 | 45 | – | –
7 | COc1cc(-c2nc(C(F)(F)F)cn2-c2ccc(S(C)(=O)=O)cc2)ccc1Cl | 0 | – | –
8 | CS(=O)(=O)c1ccc(-n2cc(C(F)(F)F)nc2-c2ccccc2F)cc1 | 97 | – | –
9 | NS(=O)(=O)c1ccc(-n2cc(C(F)(F)F)nc2-c2cccc(Br)c2)cc1 | – | 4.5 | –
10 | Cc1cccc(-c2nc(C(F)(F)F)cn2-c2ccc(S(N)(=O)=O)cc2)c1 | 95 | – | –
11 | Cc1ccccc1-c1nc(C(F)(F)F)cn1-c1ccc(S(C)(=O)=O)cc1 | 95 | – | ED50 [1]: 43 mg/kg; ED50 [2]: 17.8 mg/kg; Toxicity [8]: 0
12 | COc1c(F)cc(-c2nc(C(F)(F)F)cn2-c2ccc(S(C)(=O)=O)cc2)cc1F | 89 | – | ED50 [9]: 26 mg/kg
13 | CSc1ccc(-c2nc(C(F)(F)F)cn2-c2ccc(S(C)(=O)=O)cc2)cc1Cl | 0 | – | –
14 | CS(=O)(=O)c1ccc(-n2ccnc2-c2ccccc2)cc1 | – | > 100 | –
15 | NS(=O)(=O)c1ccc(-n2cc(C(F)(F)F)nc2-c2ccc(F)c(F)c2)cc1 | 83 | – | –
16 | Cc1ccc(-c2nc(C(F)(F)F)cn2-c2ccc(S(C)(=O)=O)cc2)cc1F | 47 | – | –
17 | CS(=O)(=O)Cc1cn(-c2ccc(S(C)(=O)=O)cc2)c(-c2ccc(Cl)cc2)n1 | – | > 100 | –
18 | Cc1cc(F)cc(-c2nc(C(F)(F)F)cn2-c2ccc(S(N)(=O)=O)cc2)c1 | 80 | – | –
19 | CS(=O)(=O)c1ccc(-c2[nH]cnc2-c2ccc(F)cc2)cc1 | – | – | NA [10]: inactive; NA [11]: inactive

Row | Compound | inhibition in vivo at 2 mg/kg [3] [%] | IC50 [6] [µM] | also measured
20 | CS(=O)(=O)c1ccc(-n2cc(C(F)(F)F)nc2-c2cc(Cl)cc(Cl)c2)cc1 | 5 | – | –
21 | CN(C)c1ccc(-c2nc(C(F)(F)F)cn2-c2ccc(S(C)(=O)=O)cc2)cc1Cl | 87 | – | –
22 | CS(=O)(=O)c1ccc(-n2cc(C(F)(F)F)nc2-c2cccc(Br)c2)cc1 | 84 | – | –
23 | CS(=O)(=O)c1ccc(-n2cc(CSc3ccc(Cl)cc3)nc2-c2ccc(Cl)cc2)cc1 | 0 | > 100 | –
24 | Cc1cn(-c2ccc(S(C)(=O)=O)cc2)c(-c2ccc(Cl)cc2)n1 | – | > 100 | inhibition in vivo at 2 mg/kg [12]: 53%
25 | CS(=O)(=O)c1ccc(-n2cc(C(F)(F)F)nc2-c2ccc3c(c2)OCO3)cc1 | 78 | – | –
26 | Cc1cc(F)cc(-c2nc(C(F)(F)F)cn2-c2ccc(S(C)(=O)=O)cc2)c1 | 87 | – | –
27 | Cc1cc(-c2nc(C(F)(F)F)cn2-c2ccc(S(C)(=O)=O)cc2)ccc1Cl | 64 | – | –
28 | NS(=O)(=O)c1ccc(-n2cc(C(F)(F)F)nc2-c2ccc(F)cc2)cc1 | 98 | 1.9 | –
29 | COc1c(F)cc(-c2nc(C(F)(F)F)cn2-c2ccc(S(N)(=O)=O)cc2)cc1F | 100 | – | –
30 | COCc1cccc(-c2nc(C(F)(F)F)cn2-c2ccc(S(C)(=O)=O)cc2)c1 | – | > 100 | –
31 | COc1cc(-c2nc(C(F)(F)F)cn2-c2ccc(S(N)(=O)=O)cc2)ccc1Cl | 100 | – | –
32 | Cc1ccc(F)cc1-c1nc(C(F)(F)F)cn1-c1ccc(S(C)(=O)=O)cc1 | – | > 100 | –
33 | Cc1ccc(-c2nc(C(F)(F)F)cn2-c2ccc(S(N)(=O)=O)cc2)cc1 | 63 | – | –
34 | CS(=O)(=O)c1ccc(-n2cc(CN)nc2-c2ccc(Cl)cc2)cc1 | – | > 100 | –
35 | COc1ccc(-c2nc(C(F)(F)F)cn2-c2ccc(S(N)(=O)=O)cc2)cc1F | 89 | – | ED50 [1]: 36 mg/kg; ED50 [13]: 19 mg/kg
36 | CS(=O)(=O)c1ccc(-n2cc(C(F)(F)F)nc2-c2cccc(F)c2)cc1 | 88 | – | –
37 | CS(=O)(=O)c1ccc(-n2cc(C#N)nc2-c2ccc(Cl)cc2)cc1 | 69 | – | –
38 | CS(=O)(=O)c1ccc(-n2cc(COc3ccc(Cl)cc3)nc2-c2ccc(Cl)cc2)cc1 | 15 | > 100 | –

Row | Compound | inhibition in vivo at 2 mg/kg [3] [%] | IC50 [6] [µM] | also measured
39 | Cc1cn(-c2ccc(F)cc2)c(-c2ccc(S(C)(=O)=O)cc2)n1 | – | > 100 | –
40 | COc1ccc2c(c1)c(CC(=O)O)c(C)n2C(=O)c1ccc(Cl)cc1 [INDOMETHACIN] | – | – | ED50 [13]: 60 mg/kg
41 | CSc1ccc(-c2nc(C(F)(F)F)cn2-c2ccc(S(C)(=O)=O)cc2)cc1 | 79 | – | –
42 | CS(=O)(=O)c1ccc(-n2cc(C(F)(F)F)nc2-c2ccc(F)c(F)c2)cc1 | 87 | – | –
43 | CS(=O)(=O)c1ccc(-n2cc(C(F)(F)F)nc2-c2ccc(Cl)cc2)cc1 | 98 | – | ED50 [2]: 9 mg/kg; logP [14]: 3.3
44 | CS(=O)(=O)c1ccc(-n2cc(CF)nc2-c2ccc(Cl)cc2)cc1 | 36 | > 100 | –
45 | CSCc1cn(-c2ccc(S(C)(=O)=O)cc2)c(-c2ccc(Cl)cc2)n1 | 10 | > 100 | –
46 | CS(=O)(=O)c1ccc(-n2cc(-c3ccccc3)nc2-c2ccc(Cl)cc2)cc1 | 6 | > 100 | –
47 | CN(C)c1cc(-c2nc(C(F)(F)F)cn2-c2ccc(S(C)(=O)=O)cc2)ccc1Cl | 69 | > 100 | –
48 | Cc1cc(-c2nc(C(F)(F)F)cn2-c2ccc(S(C)(=O)=O)cc2)ccc1F | 90 | – | –
49 | COc1c(Cl)cc(-c2nc(C(F)(F)F)cn2-c2ccc(S(C)(=O)=O)cc2)cc1Cl | 25 | > 100 | –
50 | COc1ccc(-c2nc(C(F)(F)F)cn2-c2ccc(S(C)(=O)=O)cc2)cc1Cl | 92 | – | ED50 [15]: 29 mg/kg; ED50 [16]: 35 mg/kg
51 | Cc1cc(Cl)cc(-c2nc(C(F)(F)F)cn2-c2ccc(S(N)(=O)=O)cc2)c1 | 61 | > 100 | –
52 | COc1c(Br)cc(-c2nc(C(F)(F)F)cn2-c2ccc(S(C)(=O)=O)cc2)cc1Br | 0 | > 100 | –
53 | CS(=O)(=O)c1ccc(-n2cc(C(F)(F)F)nc2-c2cccc(C(F)(F)F)c2)cc1 | 42 | – | –
54 | CS(=O)(=O)c1ccc(-n2cc(C(F)(F)F)nc2-c2ccccc2)cc1 | 98 | – | ED50 [1]: 56 mg/kg; ED50 [2]: 20.8 mg/kg
55 | COc1c(C)cc(-c2nc(C(F)(F)F)cn2-c2ccc(S(C)(=O)=O)cc2)cc1C | 29 | 91 | –
56 | CN(C)c1c(Cl)cc(-c2nc(C(F)(F)F)cn2-c2ccc(S(C)(=O)=O)cc2)cc1Cl | 25 | > 100 | –
